Experimental data from ChEMBL document CHEMBL1201862, “PubChem BioAssay data set” (2004).
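Values below derive from 48-hour exposures of cells grown in 96-well plates, with endpoints linearly interpolated between the two concentrations bracketing the appropriate inhibition level. GI50 = concentration required for 50% inhibition of growth.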 Calls of active or inactive are those of the source. No stated cut-off is given here; in the data, active = GI50 up to about 1.1 µM and inactive = higher.

How the values were obtained:
Experiment in all cases: inhibition of tumour cell growth, NCI panel, 48 h
DU-145 = system: DU-145
UACC-62 = system: UACC-62
MDA-MB-435 = system: MDA-MB-435
U-251 = system: U-251
T47D = system: T47D
A549 = system: A549
PC-3 = system: PC-3
SNB-75 = system: SNB-75
RPMI-8226 = system: RPMI-8226
SW-620 = system: SW-620
SK-MEL-2 = system: SK-MEL-2
ACHN = system: ACHN
SK-OV-3 = system: SK-OV-3
OVCAR-3 = system: OVCAR-3
SF-268 = system: SF-268
MDA-MB-231 = system: MDA-MB-231
HOP-62 = system: HOP-62
SK-MEL-5 = system: SK-MEL-5
NCI-H522 = system: NCI-H522
IGROV-1 = system: IGROV-1

Measured: GI50

O=[N+]([O-])C(=C1NCCN1)/C(Cl)=C(/Cl)N1CCOCC1
inactive: DU-145 > 100 µM | UACC-62 > 100 µM | MDA-MB-435 > 100 µM | U-251 > 100 µM | T47D > 100 µM | A549 > 100 µM | PC-3 > 100 µM | SNB-75 > 100 µM | RPMI-8226 > 100 µM | SW-620 > 100 µM | SK-MEL-2 > 100 µM | ACHN > 100 µM | SK-OV-3 > 100 µM | OVCAR-3 > 100 µM | SF-268 > 100 µM | MDA-MB-231 > 100 µM | HOP-62 > 100 µM

CCOC(=O)c1cc2c(OC)cc(OC)cc2oc1=O
inactive: DU-145 > 100 µM | UACC-62 > 100 µM | MDA-MB-435 > 100 µM | U-251 37.7 µM | T47D > 100 µM | A549 > 100 µM | PC-3 > 100 µM | SNB-75 38.5 µM | RPMI-8226 > 100 µM | SW-620 > 100 µM | SK-MEL-2 > 100 µM | SK-MEL-5 > 100 µM | ACHN > 100 µM | NCI-H522 52.1 µM | OVCAR-3 > 100 µM | SF-268 42.3 µM | IGROV-1 > 100 µM | MDA-MB-231 35.9 µM | HOP-62 65.3 µM

CCOC(=O)COc1ccc(/C=C/C(=O)c2ccc(OC)cc2)cc1
inactive: DU-145 29.9 µM | UACC-62 22.5 µM | MDA-MB-435 16.8 µM | U-251 14.3 µM | T47D 39.7 µM | A549 58.1 µM | PC-3 22.9 µM | SNB-75 65.3 µM | RPMI-8226 39.3 µM | SW-620 20.7 µM | SK-MEL-2 27.7 µM | SK-MEL-5 > 10 µM | ACHN 33 µM | NCI-H522 22.3 µM | OVCAR-3 30 µM | SF-268 22.3 µM | IGROV-1 45.2 µM | MDA-MB-231 37.6 µM | HOP-62 20.8 µM

CC(=O)O[C@H]1CC[C@@]2(C)C(=CC[C@@H]3[C@@H]2CC[C@]2(C)c4c(cc(C#N)c(=N)n4C(C)=O)C[C@@H]32)C1
inactive: DU-145 27.1 µM | UACC-62 15.7 µM | MDA-MB-435 19.6 µM | U-251 29 µM | T47D 17.6 µM | A549 23 µM | PC-3 21.5 µM | SNB-75 19.1 µM | SW-620 19.4 µM | SK-MEL-5 15.5 µM | ACHN 20.1 µM | NCI-H522 17.9 µM | SK-OV-3 6.7 µM | OVCAR-3 17.6 µM | SF-268 27.9 µM | IGROV-1 22.2 µM | MDA-MB-231 31.1 µM | HOP-62 24.2 µM

Clc1nc(NC23CC4CC(CC(C4)C2)C3)nc(NC23CC4CC(CC(C4)C2)C3)n1
inactive: DU-145 56.6 µM | UACC-62 > 100 µM | MDA-MB-435 92.3 µM | U-251 26.7 µM | T47D 10.5 µM | A549 43.9 µM | PC-3 1.41 µM | SNB-75 18 µM | RPMI-8226 19.1 µM | SW-620 62.4 µM | SK-MEL-2 19.3 µM | SK-MEL-5 47.3 µM | ACHN > 34.8 µM | SK-OV-3 > 76.6 µM | OVCAR-3 50.8 µM | SF-268 > 83.4 µM | IGROV-1 > 100 µM | MDA-MB-231 > 34.3 µM | HOP-62 44.2 µM

N#Cc1c(-c2nc3ccccc3s2)c(=O)oc2cc(O)ccc12
inactive: DU-145 22.6 µM | UACC-62 > 100 µM | MDA-MB-435 27.8 µM | U-251 18 µM | T47D 17.7 µM | A549 26.9 µM | PC-3 34.4 µM | SNB-75 > 100 µM | RPMI-8226 13.1 µM | SW-620 30.8 µM | SK-MEL-2 49.7 µM | SK-MEL-5 10.2 µM | ACHN 25 µM | NCI-H522 13.2 µM | OVCAR-3 2.25 µM | SF-268 48.6 µM | IGROV-1 15.3 µM | MDA-MB-231 22.9 µM | HOP-62 16.7 µM

COC(=O)CSc1nc2[nH]c(SC)c(C(N)=O)c2c(=O)n1-c1ccccc1
inactive: DU-145 > 10 µM | UACC-62 > 10 µM | MDA-MB-435 > 10 µM | T47D > 10 µM | A549 > 10 µM | PC-3 > 10 µM | SNB-75 > 10 µM | RPMI-8226 > 10 µM | SW-620 > 10 µM | SK-MEL-5 > 10 µM | SK-OV-3 > 10 µM | SF-268 > 10 µM | IGROV-1 > 10 µM | MDA-MB-231 > 10 µM | HOP-62 > 10 µM

COc1cc2ccc1OCc1cccc(n1)COc1ccc(cc1OC)/C=N\CCNCCNCC/N=C\2
inactive: DU-145 > 100 µM | UACC-62 > 100 µM | MDA-MB-435 > 100 µM | U-251 > 100 µM | T47D > 100 µM | A549 > 100 µM | PC-3 > 100 µM | SNB-75 > 100 µM | SW-620 > 100 µM | SK-MEL-2 > 100 µM | SK-MEL-5 > 100 µM | ACHN > 100 µM | NCI-H522 > 100 µM | SK-OV-3 > 100 µM | OVCAR-3 > 100 µM | SF-268 > 100 µM | IGROV-1 > 100 µM | MDA-MB-231 > 100 µM | HOP-62 > 100 µM
